# Test results taken from ChEMBL document CHEMBL6083258, “Advances in synthesis of novel annulated azecines and their unique pharmacological properties” (Eur J Med Chem, 2024).
# Tests used:
# Acetylcholinesterase [1] = biological target: T1, Acetylcholinesterase (Homo sapiens, UniProt P22303); experiment: Binding affinity to AChE (unknown origin) assessed as inhibition constant
# Acetylcholinesterase [2] = biological target: T1, Acetylcholinesterase; experiment: Inhibition of human AChE using acetylthiocholine iodide as substrate after 15 mins by Ellman's method
# [3] = biological target: T2, Amine oxidase [flavin-containing] B (Homo sapiens, UniProt P27338); experiment: Inhibition of MAO-B (unknown origin)
# T2 sequence (P27338 whole entry): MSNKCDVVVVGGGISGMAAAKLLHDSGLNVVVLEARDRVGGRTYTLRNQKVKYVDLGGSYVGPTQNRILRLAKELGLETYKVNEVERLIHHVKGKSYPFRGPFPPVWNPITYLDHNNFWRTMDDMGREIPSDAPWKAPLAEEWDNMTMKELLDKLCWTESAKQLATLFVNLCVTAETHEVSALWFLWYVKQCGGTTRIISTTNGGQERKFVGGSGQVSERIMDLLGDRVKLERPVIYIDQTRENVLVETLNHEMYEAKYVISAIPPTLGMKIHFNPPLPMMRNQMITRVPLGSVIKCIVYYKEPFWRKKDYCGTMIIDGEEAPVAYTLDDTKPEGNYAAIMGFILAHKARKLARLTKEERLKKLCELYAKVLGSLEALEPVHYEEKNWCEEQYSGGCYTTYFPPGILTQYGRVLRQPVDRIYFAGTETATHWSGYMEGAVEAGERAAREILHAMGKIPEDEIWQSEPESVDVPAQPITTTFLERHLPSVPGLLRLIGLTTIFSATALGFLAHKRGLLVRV
# [4] = biological target: ATP-dependent translocase ABCB1 (Homo sapiens, UniProt P08183); experiment: Inhibition of p-glycoprotein (unknown origin)
# Sequence of ATP-dependent translocase ABCB1 (P08183 whole entry): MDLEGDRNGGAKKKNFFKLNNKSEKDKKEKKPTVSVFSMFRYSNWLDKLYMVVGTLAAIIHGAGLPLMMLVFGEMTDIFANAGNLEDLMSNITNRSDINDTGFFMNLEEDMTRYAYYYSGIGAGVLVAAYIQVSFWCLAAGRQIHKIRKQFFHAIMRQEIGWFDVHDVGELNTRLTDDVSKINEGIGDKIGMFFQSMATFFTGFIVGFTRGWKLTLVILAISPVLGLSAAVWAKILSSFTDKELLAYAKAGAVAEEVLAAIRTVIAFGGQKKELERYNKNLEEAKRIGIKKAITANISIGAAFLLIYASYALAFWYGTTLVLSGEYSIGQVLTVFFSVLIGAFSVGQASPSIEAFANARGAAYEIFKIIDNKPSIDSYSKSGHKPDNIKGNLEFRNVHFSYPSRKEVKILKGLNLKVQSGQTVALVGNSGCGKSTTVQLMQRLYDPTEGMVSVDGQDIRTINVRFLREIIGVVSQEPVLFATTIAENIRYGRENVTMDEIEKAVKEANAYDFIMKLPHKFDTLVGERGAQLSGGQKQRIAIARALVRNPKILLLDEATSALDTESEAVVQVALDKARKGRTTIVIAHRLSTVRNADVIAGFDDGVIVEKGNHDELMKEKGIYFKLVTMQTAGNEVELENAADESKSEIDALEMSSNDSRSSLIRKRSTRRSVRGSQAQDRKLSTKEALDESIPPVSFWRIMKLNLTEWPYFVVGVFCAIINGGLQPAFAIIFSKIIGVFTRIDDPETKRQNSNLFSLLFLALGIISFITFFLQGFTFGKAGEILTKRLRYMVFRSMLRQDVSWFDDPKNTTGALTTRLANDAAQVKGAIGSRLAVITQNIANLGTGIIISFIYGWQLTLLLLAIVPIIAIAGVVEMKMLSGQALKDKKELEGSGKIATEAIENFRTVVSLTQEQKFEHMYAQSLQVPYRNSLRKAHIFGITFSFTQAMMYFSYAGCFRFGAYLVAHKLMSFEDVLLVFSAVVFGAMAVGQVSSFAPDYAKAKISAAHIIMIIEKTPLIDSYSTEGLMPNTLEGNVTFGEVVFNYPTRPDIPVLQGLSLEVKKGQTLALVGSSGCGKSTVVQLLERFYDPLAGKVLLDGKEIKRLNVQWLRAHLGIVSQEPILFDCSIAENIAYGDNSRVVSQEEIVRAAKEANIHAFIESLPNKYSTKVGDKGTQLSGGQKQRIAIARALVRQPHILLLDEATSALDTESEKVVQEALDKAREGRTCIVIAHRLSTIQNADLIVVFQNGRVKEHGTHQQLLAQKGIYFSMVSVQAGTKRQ
# MCF7 = experiment: Antiproliferative activity against human MCF7 cells assessed as reduction in cell viability incubated for 48 hrs by MTT assay; type: functional, cell-based; settings: MCF7, 48 h
# HepG2 = experiment: Antiproliferative activity against human HepG2 cells assessed as reduction in cell viability incubated for 48 hrs by MTT assay; type: functional, cell-based; settings: HepG2, 48 h
# T1 sequence (P22303 whole entry): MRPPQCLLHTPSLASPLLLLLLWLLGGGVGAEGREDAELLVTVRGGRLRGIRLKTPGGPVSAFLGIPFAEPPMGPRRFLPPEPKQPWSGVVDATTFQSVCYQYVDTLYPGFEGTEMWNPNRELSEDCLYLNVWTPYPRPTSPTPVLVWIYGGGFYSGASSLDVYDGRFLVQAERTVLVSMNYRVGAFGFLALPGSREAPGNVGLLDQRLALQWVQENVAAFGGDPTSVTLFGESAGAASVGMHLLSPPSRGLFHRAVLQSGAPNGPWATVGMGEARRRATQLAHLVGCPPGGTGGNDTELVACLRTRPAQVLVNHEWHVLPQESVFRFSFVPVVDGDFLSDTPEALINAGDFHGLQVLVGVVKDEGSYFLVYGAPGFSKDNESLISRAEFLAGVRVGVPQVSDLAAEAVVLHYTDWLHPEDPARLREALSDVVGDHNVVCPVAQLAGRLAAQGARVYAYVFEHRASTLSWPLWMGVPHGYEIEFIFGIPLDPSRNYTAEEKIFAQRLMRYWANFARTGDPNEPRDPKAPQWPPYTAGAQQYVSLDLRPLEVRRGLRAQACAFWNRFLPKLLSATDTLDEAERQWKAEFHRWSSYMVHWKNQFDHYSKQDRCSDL
compound,measurement,setting,value
COCC1=C=C(c2ccc(OC)cc2)c2cc(OC)c(OC)cc2CCN(C)/C=C\1C(=O)OC,Ki,Acetylcholinesterase [1],4.9 µM
COC(=O)/C1=C/N(C)CCc2cc(OC)c(OC)cc2C(C)=C=C1c1ccccc1,IC50,Acetylcholinesterase [2],14 µM
same,IC50,[3],7.1 µM
COC(=O)/C1=C/N(C)CCc2cc(OC)c(OC)cc2C(c2ccc(OC)cc2)=C=C1c1ccccc1,IC50,[4],0.0042 µM
same,IC50,MCF7,> 100 µM
same,IC50,HepG2,> 100 µM
